Results taken from US9447095B2, “Pyrimidine derivatives as phosphodiesterase 10 inhibitors (PDE-10)” (PALOBIOFARMA S.L., priority 2013, dated 2016).

biological target: Phosphodiesterase 10A (PDE10A) (Homo sapiens (Human), UniProt Q9Y233); test: Phosphodiesterase 10A (PDE10A) activity inhibition test ([3H]cAMP scintillation proximity assay); format: biochemical; details: dose-response, 1:10 dilutions from 100 μM to 1 nM; [3H]cAMP SPA, 20 minutes at 30° C.; read-out: IC50 PDE10
Experimental: The “analysis of the activity of the enzyme Phosphodiesterase [^3H] cAMP SPA” (Perkin Elmer #7090 TRKQ) kit was used for the study of Phosphodiesterase 10. The kit contains: • Yttrium scintillation proximity assay (SPA) in beads: yttrium silicate in microspheres resuspended pellet in MiliQ water containing 18 mM zinc sulfate. • 10×PDE assay buffer: 500 mM Tris/HCl; 83 mM MgCl2; 17 mM EGTA; pH 7.5. • Tracer [^3H] cAMP: substrate for enzymatic reaction.
The test is based on the preferential binding of linear nucleotides to the SPA beads in the presence of zinc sulfate, with respect to the binding of cyclic nucleotides, which is almost imperceptible.
The binding of the radioactively labeled product to the beads brings the isotope to a proximity enough to allow the radioactive tritium radiation to excite the flashing part in the bead. Any independent radiolabel is not sufficiently close to the flashing part to allow the transfer of energy, so that no signal is generated. In addition, as the cyclic substrate is not effectively linked with the bead, the generated background signal is very low.
The binding of the linear nucleotides with the bead is based on a complex chelation mechanism. Zinc sulfate in the microsphere solution improves the binding between the bead and […].
Phosphodiesterase 10A (PDE10A) Activity Inhibition Test
The test is performed in 96-well Flexiplates (Perkin Elmer #1450-401) with duplicates for each sample. Positive and negative controls are also required in each analyzed plate to evaluate the activity of the enzyme.
The inhibition values for each of the compounds are measured in duplicate at a concentration of 10 μM and the plate is incubated for 20 minutes at 30° C. and then 50 μL of the kit beads are then added “Phosphodiesterase SPA beads” (Perkin-Elmer #RPNQ0150).
The plate is stirred for 1 hour at room temperature. Then beads are allowed to stand for one hour before reading the activity in a beta scintillation counter.
To build a dose-response curve, in order to calculate the potency of inhibition (expressed as IC50) for PDE10A, a series of 1:10 dilutions in test in 1× buffer from 100 μM to 1 nM for each compound were carried out.

Chain of Phosphodiesterase 10A (PDE10A) (Q9Y233 whole entry, species assumed): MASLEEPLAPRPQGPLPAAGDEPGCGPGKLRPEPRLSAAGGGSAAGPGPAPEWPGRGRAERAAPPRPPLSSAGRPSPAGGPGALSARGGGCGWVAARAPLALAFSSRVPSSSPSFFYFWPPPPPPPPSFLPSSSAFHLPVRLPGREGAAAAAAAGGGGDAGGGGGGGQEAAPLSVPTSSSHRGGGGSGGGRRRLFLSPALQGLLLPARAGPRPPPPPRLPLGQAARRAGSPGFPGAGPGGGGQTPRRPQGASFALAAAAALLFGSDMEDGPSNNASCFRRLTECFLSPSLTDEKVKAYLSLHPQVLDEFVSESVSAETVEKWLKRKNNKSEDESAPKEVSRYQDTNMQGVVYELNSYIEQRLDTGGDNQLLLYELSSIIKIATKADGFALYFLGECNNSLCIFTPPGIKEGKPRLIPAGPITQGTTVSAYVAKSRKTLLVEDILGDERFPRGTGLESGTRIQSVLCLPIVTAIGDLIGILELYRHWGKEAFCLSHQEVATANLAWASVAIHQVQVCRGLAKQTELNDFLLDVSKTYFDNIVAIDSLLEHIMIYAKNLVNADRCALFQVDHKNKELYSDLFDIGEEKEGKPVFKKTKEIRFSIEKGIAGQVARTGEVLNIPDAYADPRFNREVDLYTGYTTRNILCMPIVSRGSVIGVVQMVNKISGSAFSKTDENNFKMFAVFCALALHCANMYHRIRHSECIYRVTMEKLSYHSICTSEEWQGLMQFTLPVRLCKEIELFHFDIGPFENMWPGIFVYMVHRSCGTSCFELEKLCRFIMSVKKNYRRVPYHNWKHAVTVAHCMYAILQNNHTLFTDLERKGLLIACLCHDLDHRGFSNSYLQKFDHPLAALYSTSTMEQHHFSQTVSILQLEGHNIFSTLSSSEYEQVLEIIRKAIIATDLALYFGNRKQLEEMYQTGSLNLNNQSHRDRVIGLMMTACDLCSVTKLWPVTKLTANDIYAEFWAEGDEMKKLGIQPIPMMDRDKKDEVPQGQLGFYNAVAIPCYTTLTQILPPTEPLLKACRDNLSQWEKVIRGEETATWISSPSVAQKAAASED

| Compound | IC50 |
| --- | --- |
| CCNc1nc(-n2ncc3ccccc32)nc(N)c1Br [Example 2, 5-bromo-N^4-ethyl-2-(1H-indazol-1-yl)pyrimidine-4,6-diamine] | 21.9 nM |
| Cc1nc(CNc2nc(-n3ncc4ccccc43)nc(N)c2Br)cs1 [Example 6, 5-bromo-2-(1H-indazol-1-yl)-N^4-[(2-methylthiazol-4-yl)methyl]pyrimidine-4,6-diamine] | 18.8 nM |
| Nc1nc(-n2ncc3ccccc32)nc(NCc2cncs2)c1Br [Example 9, 5-bromo-2-(1H-indazol-1-yl)-N^4-[(thiazol-5-yl)methyl]pyrimidine-4,6-diamine] | 1.6 nM |
| Cc1ncsc1CNc1nc(-n2ncc3ccccc32)nc(N)c1Br [Example 10, 5-bromo-2-(1H-indazol-1-yl)-N^4-[(4-methylthiazol-5-yl)methyl]pyrimidine-4,6-diamine] | 2.9 nM |
| Nc1nc(-n2cc(-c3ccccn3)cn2)nc(NCc2cncs2)c1Br [Example 20, 5-bromo-2-[4-(pyridin-2-yl)-1H-pyrazol-1-yl]-N^4-[(thiazol-5-yl)methyl]pyrimidine-4,6-diamine] | 7 nM |
| Nc1nc(-n2cc(-c3ccc4ccccc4n3)cn2)nc(NC2CCOCC2)c1Br [Example 23, 5-bromo-N^4-(tetrahydro-2H-pyran-4-yl)-2-[4-(quinolin-2-yl)-1H-pyrazol-1-yl]pyrimidine-4,6-diamine] | 9.6 nM |
| C#CCNc1nc(-n2ncc3ccncc32)nc(N)c1Br [Example 33, 5-bromo-N^4-(prop-2-ynyl)-2-(1H-pyrazolo[3,4-c]pyridin-1-yl)pyrimidine-4,6-diamine] | 3.2 nM |
| Cc1ncsc1CNc1nc(-n2ncc3ccncc32)nc(N)c1Br [Example 34, 5-bromo-N^4-[(4-methylthiazol-5-yl)methyl]-2-(1H-pyrazolo[3,4-c]pyridin-1-yl)pyrimidine-4,6-diamine] | 0.4 nM |
| Nc1nc(-n2ncc3ccncc32)nc(NCC2CC2)c1Br [Example 35, 5-bromo-N^4-(cyclopropylmethyl)-2-(1H-pyrazolo[3,4-c]pyridin-1-yl)pyrimidine-4,6-diamine] | 1.8 nM |
| C#CCNc1nc(-n2cncn2)nc(N)c1Br [Example 42, 5-bromo-N^4-(prop-2-ynyl)-2-(1H-1,2,4-triazol-1-yl)pyrimidine-4,6-diamine] | 5.8 nM |
| C#CCNc1nc(-n2ncc3ccccc32)nc(NCC)c1Br [Example 66, 5-bromo-N^4-ethyl-2-(1H-indazol-1-yl)-N^6-(prop-2-ynyl)pyrimidine-4,6-diamine] | 120 nM |
| CCNc1nc(-n2cc(-c3ccncn3)cn2)nc(NCc2nc3ccccc3[nH]2)c1Br [Example 77, N^4-[(1H-benzo[d]imidazol-2-yl)methyl]-5-bromo-N^6-ethyl-2-[4-(pyrimidin-4-yl)-1H-pyrazol-1-yl]pyrimidine-4,6-diamine] | 29.3 nM |

More lines, in order of falling IC50, values ahead:

| IC50 | Compound |
| --- | --- |
| 90.7 nM | Nc1nc(-n2cc(-c3ccccn3)cn2)nc(-n2cccn2)c1Br [Example 55, 5-bromo-6-(1H-pyrazol-1-yl)-2-[4-(pyridin-2-yl)-1H-pyrazol-1-yl]pyrimidin-4-amine] |
| 74.1 nM | Cn1cc(CNc2nc(-n3ncc4ccccc43)nc(N)c2Br)cn1 [Example 8, 5-bromo-2-(1H-indazol-1-yl)-N^4-[(1-methyl-1H-pyrazol-4-yl)methyl]pyrimidine-4,6-diamine] |
| 52.5 nM | Nc1nc(-n2ncc3ccccc32)nc(NCC2CC2)c1Br [Example 1, 5-bromo-N^4-(cyclopropylmethyl)-2-(1H-indazol-1-yl)pyrimidine-4,6-diamine] |
| 40.9 nM | C#CCNc1nc(-n2ncc3ccccc32)nc(N)c1Br [Example 3, 5-bromo-2-(1H-indazol-1-yl)-N^4-(prop-2-ynyl)pyrimidine-4,6-diamine] |
| 37 nM | CCNc1nc(-n2cc(-c3ccncn3)cn2)nc(N)c1Br [Example 61, 5-bromo-N^4-ethyl-2-[4-(pyrimidin-4-yl)-1H-pyrazol-1-yl]pyrimidine-4,6-diamine] |
| 29.9 nM | Nc1nc(-n2cc(C(=O)O)cn2)nc(NCC2CC2)c1Br [Example 51, 1-[4-amino-5-bromo-6-(cyclopropylmethylamino)pyrimidin-2-yl]-1H-pyrazole-4-carboxylic acid] |
| 25.9 nM | COCCNc1nc(-n2ncc3ccccc32)nc(N)c1Br [Example 11, 5-bromo-2-(1H-indazol-1-yl)-N^4-(2-methoxyethyl)pyrimidine-4,6-diamine] |
| 21.9 nM | Nc1nc(-n2ncc3ccccc32)nc(NC2CCOCC2)c1Br [Example 7, 5-bromo-N^4-(tetrahydro-2H-pyran-4-yl)-2-(1H-indazol-1-yl)pyrimidine-4,6-diamine] |
| 18 nM | C#CCNc1nc(-n2cc(-c3ccccn3)cn2)nc(N)c1Br [Example 17, 5-bromo-N^4-(prop-2-ynyl)-2-[4-(pyridin-2-yl)-1H-pyrazol-1-yl]pyrimidine-4,6-diamine] |
| 16.5 nM | Cc1ncsc1CNc1nc(-n2cc(-c3cnccn3)cn2)nc(N)c1Br [Example 29, 5-bromo-N^4-[(4-methylthiazol-5-yl)methyl]-2-[4-(pyrazin-2-yl)-1H-pyrazol-1-yl]pyrimidine-4,6-diamine] |
| 12.4 nM | CCNc1nc(-n2ncc3ccccc32)nc(N)c1Cl [Example 64, 5-chloro-N^4-ethyl-2-(1H-indazol-1-yl)pyrimidine-4,6-diamine] |
| 8.2 nM | CCNc1nc(-n2cc(C(=O)N3CCOCC3)cn2)nc(N)c1Br [Example 53, {1-[4-amino-5-bromo-6-(ethylamino)pyrimidin-2-yl]-1H-pyrazole-4-yl}(morpholino)methanone] |
| 4.5 nM | C#CCNc1nc(-n2cc(-c3cnccn3)cn2)nc(N)c1Br [Example 30, 5-bromo-N^4-(prop-2-ynyl)-2-[4-(pyrazin-2-yl)-1H-pyrazol-1-yl]pyrimidine-4,6-diamine] |
| 3.4 nM | Nc1nc(-n2cncn2)nc(NCC2CC2)c1Br [Example 46, 5-bromo-N^4-(cyclopropylmethyl)-2-(1H-1,2,4-triazol-1-yl)pyrimidine-4,6-diamine] |
| 1.3 nM | Nc1nc(-n2cncn2)nc(NCc2cncs2)c1Br [Example 45, 5-bromo-N^4-[(thiazol-5-yl)methyl]-2-(1H-1,2,4-triazol-1-yl)pyrimidine-4,6-diamine] |
| 0.6 nM | Cc1ncsc1CNc1nc(-n2ncc3ncccc32)nc(N)c1Br [Example 41, 5-bromo-N^4-[(4-methylthiazol-5-yl)methyl]-2-(1H-pyrazolo[4,3-b]pyridin-1-yl)pyrimidine-4,6-diamine] |
| 0.3 nM | Cc1ncsc1CNc1nc(-n2ncc3cnccc32)nc(N)c1Br [Example 39, 5-bromo-N^4-[(4-methylthiazol-5-yl)methyl]-2-(1H-pyrazolo[4,3-c]pyridin-1-yl)pyrimidine-4,6-diamine] |
| 0.06 nM | Nc1nc(-n2ncc3ccncc32)nc(NCc2cncs2)c1Br [Example 36, 5-bromo-2-(1H-pyrazolo[3,4-c]pyridin-1-yl)-N^4-[(thiazol-5-yl)methyl]pyrimidine-4,6-diamine] |
